The test system of test [1] is primary human mesenchymal stem cells (hMSCs). In words: Induction of chondrogenesis in primary human mesenchymal stem cells (nodule imaging, Rhodamine B / Nile Red). Format: cell-based. The following applies: for EC50: concentration required to induce 50% levels of chondrogenesis vs TGF-β3 positive control, read-out: Conc (nM) of 50% TGF-β3 activity; for Emax: maximum chondrogenesis activity relative to TGF-β3 (10 ng/mL) positive control, read-out: Max. Activity as % TGF-β3 activity. On the procedure:
Representative compounds were screened using primary human mesenchymal stem cells (hMSCs) to determine their ability to induce chondrogenesis (process by which cartilage is developed).
Primary human mesenchymal stem cells (hMSCs) were purchased from Lonza (Walkersville, Md.) and expanded in Mesenchymal Stem Cell Growth Media (Lonza). Cells between passage 3 and 6 were used for the experiments.
Each compound was dissolved in DMSO as a 10 mM stock and used to prepare compound source plates. For the 96 well assay, serial dilution (1:3, 6-point dose-response curves from 2700 nM to 10 nM) and compound transfer was performed using the ECHO 550 (Labcyte, Sunnyvale, Calif.) into 96-well clear bottom assay plates (Greiner Bio-One) with appropriate DMSO backfill for a final DMSO concentration of 0.03%. hMSCs were plated at 20,000 cells/well in 250 μL/well Incomplete Chondrogenic Induction Medium (Lonza; DMEM, dexamethasone, ascorbate, insulin-transferrin-selenium [ITS supplement], gentamycin-amphotericin [GA-1000], sodium pyruvate, proline and L-glutamine). TGF-β3 (10 ng/mL) was used as a positive control for differentiation while negative control wells were treated with 75 nL DMSO for normalization and calculating EC50 values. For the 384 well assay, serial dilution (1:3, 8-point dose-response curves from 5000 nM to 2.2 nM) and compound transfer was performed using the ECHO 550 (Labcyte, Sunnyvale, Calif.) into 384-well clear bottom assay plates (Greiner Bio-One) with appropriate DMSO backfill for a final DMSO concentration of 0.03%. hMSCs were plated at 8,000 cells/well in 80 μL/well Incomplete Chondrogenic Induction Medium (Lonza; DMEM, dexamethasone, ascorbate, insulin-transferrin-selenium [ITS supplement], gentamycin-amphotericin [GA-1000], sodium pyruvate, proline and L-glutamine). TGF-β3 (10 ng/mL) was used as a positive control for differentiation while negative control wells were treated with 25 nL DMSO for normalization and calculating EC50 values. Cells were incubated at 37° C. and 5% CO2 for 6 days. To image chondrogenic nodules, the cells were fixed using 4% formaldehyde (Electron Microscopy Sciences), and stained with 2 μg/mL Rhodamine B (Sigma-Aldrich) and 20 μM Nile Red (Sigma-Aldrich) [Johnson K., et. al, A Stem CellBased Approach to Cartilage Repair, Science, (2012), 336(6082), 717-721]. The nodules imaged (25 images per well for 96 well plates and 9 images per well for 384 well plates at 10× magnification) by excitation at 531 nm and emission at 625 nm and quantified using the CellInsight CX5 (Thermo Scientific). Area of nodules in each well was normalized to the average of 3 DMSO treated wells on the same plate using Excel (Microsoft Inc.). The normalized averages (fold change over DMSO) of 2 or 3 replicate wells for each compound concentration were calculated. Due to solubility limitations of some of the compounds, curve fitting was incomplete leading to inaccurate EC50 determinations.
Using TGF-β3 as a positive control, the concentration of representative compounds required to induce 50% levels of chondrogenesis is reported. In addition, the maximum activity of each compound and the respective dose that each compound reached maximum chondrogenesis activity is reported.

In test [2] the test system is IL-6. In words: Inhibition of IL-6 in LPS-stimulated THP-1 human monocyte cells (HTRF). The settings on record: for EC50: IL-6 inhibition, LPS-stimulated THP-1 cells, HTRF. Format: cell-based. The essentials:
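THP-1 cells serum-reduced (1% FBS, 24 h), then 5000 cells/well preincubated 2 h with compound (10-point 1:3 series from 10 μM, 0.1% DMSO) before 500 ng/mL LPS for 22 h at 37 °C. Secreted IL-6 quantified by HTRF 665/620 ratio; DMSO-normalised duplicates fitted to four-parameter EC50; above 10 μM, % inhibition at 10 μM given.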
(In general: In TR-FRET formats the signal depends on donor and acceptor labels being close together.)

Bounds are passed on as bounds.

EC50, Emax and inhibition data for nine compounds are collected here from patent US10604512B2, “3-(1H-indol-2-yl)-1H-indazoles and therapeutic uses thereof” (Samumed, LLC, priority 2015, dated 2020).

Consider `CCC(=O)Nc1cncc(-c2ccc3[nH]nc(-c4cc5c(N6CCCCC6)cccc5[nH]4)c3c2)c1` [Compound 169, N-(5-(3-(4-(Piperidin-1-yl)-1H-indol-2-yl)-1H-indazol-5-yl)pyridin-3-yl) propionamide], for which the values for the EC50 in test [1] and in test [2] were 30 nM and above 10000 nM, respectively. Moreover, the Emax in test [1] came to 171%. Also, the inhibition at 10 µM in test [2] (THP-1, printed beside >10 μM EC50, top concentration 10 μM, meaning not given, read-out: percentage in parentheses after EC50 >10) was 41.7%.

For the compound `CN1CCN(c2cccc3[nH]c(-c4n[nH]c5ccc(-c6cncc(NC(=O)C7CCCC7)c6)cc45)cc23)CC1` [Compound 246, N-(5-(3-(4-(4-Methylpiperazin-1-yl)-1H-indol-2-yl)-1H-indazol-5-yl)pyridin-3-yl)cyclopentanecarboxamide], in test [1], the EC50 came to 100 nM and the Emax was 185%. The EC50 in test [2] was found to be 186 nM.

For the compound `CC(C)C(=O)Nc1cncc(-c2ccc3[nH]nc(-c4cc5c(-c6cccnc6)cccc5[nH]4)c3c2)c1` [Compound 93, N-(5-(3-(4-(Pyridin-3-yl)-1H-indol-2-yl)-1H-indazol-5-yl)pyridin-3-yl) isobutyramide], the EC50 came to 30 nM in test [1] and 34 nM in test [2]. In addition, the Emax in test [1] was determined as 199%.

As to `Nc1cncc(-c2ccc3[nH]nc(-c4cc5c(-c6ccccc6F)cccc5[nH]4)c3c2)c1` [Compound 59, 5-(3-(4-(2-Fluorophenyl)-1H-indol-2-yl)-1H-indazol-5-yl)pyridin-3-amine], the results for the EC50 in test [1] and in test [2] were 10 nM and 3460 nM, respectively. In test [1], the Emax turned out to be 197%.

With `CN(C)Cc1cncc(-c2ccc3[nH]nc(-c4cc5c(-c6ccncc6)cccc5[nH]4)c3c2)c1` [Compound 125, N,N-dimethyl-1-(5-(3-(4-(Pyridin-4-yl)-1H-indol-2-yl)-1H-indazol-5-yl)pyridin-3-yl)methanamine], in test [1], the EC50 was found to be 30 nM and the Emax was determined as 191%. The compound also showed an EC50 in test [2] of 150 nM.

Turning to `CN1CCN(c2cccc3[nH]c(-c4n[nH]c5ccc(-c6cncnc6)cc45)cc23)CC1` [Compound 251, 3-(4-(4-Methylpiperazin-1-yl)-1H-indol-2-yl)-5-(pyrimidin-5-yl)-1H-indazole], in test [1], the EC50 was found to be 100 nM and the Emax stood at 165%. The compound further had an EC50 in test [2] of 152 nM.

As for `CN1CCN(c2cccc3[nH]c(-c4n[nH]c5ccc(-c6cncc(CN7CCCCC7)c6)cc45)cc23)CC1` [Compound 239, 3-(4-(4-Methylpiperazin-1-yl)-1H-indol-2-yl)-5-(5-(piperidin-1-ylmethyl)pyridin-3-yl)-1H-indazole], in test [1], the EC50 amounted to 100 nM and the Emax is 198%. In addition, the EC50 in test [2] came out at 1150 nM.

On to `Nc1cncc(-c2ccc3[nH]nc(-c4cc5c(-c6ccccn6)cccc5[nH]4)c3c2)c1` [Compound 143, 5-(3-(4-(Pyridin-2-yl)-1H-indol-2-yl)-1H-indazol-5-yl)pyridin-3-amine], for which the EC50 is 10 nM in test [1] and 290 nM in test [2]. Also, the Emax in test [1] is 224%.

Consider `c1ccc(-c2cccc3[nH]c(-c4n[nH]c5ccc(-c6cncnc6)cc45)cc23)nc1` [Compound 167, 3-(4-(Pyridin-2-yl)-1H-indol-2-yl)-5-(pyrimidin-5-yl)-1H-indazole], for which, in test [1], the EC50 is 10 nM and the Emax is 203%. This compound also registered an EC50 in test [2] of 979 nM.
